Source: patent US10035814B2, “Guanine analogs as telomerase substrates and telomere length affectors” (Geron Corporation, priority 2011, dated 2018)
Values joined by “and” are separate entries in the source; they are usually repeats but may differ in a detail not shown here. Equal values may be shown once.

Columns and labels:
RPE-64-tv cells = test: Cytotoxicity in RPE-64-tv cells; type: cell-based
A549 cells = test: Telomere repeat fragment (TRF) assay using A549 cells; type: cell-based; conditions: approximately 70 population doublings
Protocol: (§1) Approximately 1-2 μg of genomic DNA from each cell line or tissue was digested by Hinf/RsaI for 2 hours at 37° C. Following DNA digestion, the genomic DNA fragments were separated on a 0.8% agarose gel and transferred to a nylon membrane by blotting. All membrane hybridization and detection reagents were provided in the TeloTAGGG Telomere Length Assay kit (Roche Diagnostics, Mannheim Germany). The blotted membranes were hybridized with digoxigenin (DIG)-labeled PNA probe specific for telomeric repeats, followed by incubation with anti-DIG-antibody-alkaline phosphatase according to the manufacturer's instructions. Alkaline phosphatase was quantified using the chemiluminescent substrate. Telomere lengths were calculated according to the manufacturer's instruction.
Lane 1 is a ladder from 21.2 kb to 1.9 kb. Lanes 2 and 3 have 10 μM and 5 μM, respectively, of PMPG free acid (ID#142693). Lanes 4 to 6 have 10 μM, 5 μM, and 2.5 μM, respectively, of PMPG prodrug (ID#142715). Lane 7 has 2 μM of Imetelstat (163 L). Lane 8 has 2 μM of a mismatch. Lanes 9 and 10 have 20 μM and 10 μM, respectively, of PMIBeG free acid [(((2-((2-amino-6-oxo-1H-purin-9(6H)-yl)methyl)allyl)oxy)methyl)phosphonic acid] (ID#142811). Indicated amounts each compound were added to A549 cells. After approximately 70 population doublings, the cells were harvested and telomere lengths determined using TRF. The estimated average telomere lengths were: (1) MM/mismatch control: 7 kb; (2) Imetelstat/163 L: 4.3 kb; (3) PMPG prodrug (10 μM and 5 μM): 4 kb; (4) PMPG free acid (5 μM and 10 μM): 4 kb; (5) PMIBeG prodrug (50 μM): 4.3 kb; (6) PMIBeG free acid (20 μM): 5 kb.

telomerase in HT3 cells = telomerase in HT3 cells (Homo sapiens (Human), UniProt O14746); test: Ex vivo TRAP assay in HT3 cells; type: cell-based; conditions: for EC50: Table 8, assay not given, repeat determinations, values coincide with Ex Vivo TRAP, read-out: EC50
Protocol: HT3 cells were treated for three days with increasing concentrations of PMPG-diisopropyloxy ester ranging from 0.2 μM to 20 μM. Cells (HT3 RPMI+10% PBS) were incubated with compound for 24 hr after which PSTS primer (phosphorothioate-d(AATCCGTCGAGCAGAGTT (SEQ ID NO: 6) containing a 5′ Cy-5 label) (7.5 μM) and fresh compound are added for an additional 24 hr. Cells were lysed and endogenous telomerase inactivated by heating (15 min, 75° C.). Products were amplified by 30 cycles of PCR under TRAP conditions set forth above and quantified. The results of two independent experiments are shown in Table 4.
HT3 cells were treated for three days with increasing concentrations of one or more of the indicated compounds ranging from 0.2 μM to 20 μM. Cells (HT3 RPMI+10% FBS) were incubated with compound for 24 hours, after which PSTS primer (phosphorothioate-d AATCCGTCGAGCAGAGTT (SEQ ID NO: 6) containing a 5′ Cy-5 label) (7.5 μM) and fresh compound were added for an additional 24 hours. Cells were lysed and endogenous telomerase inactivated by heating (15 minutes, 75° C.). Products were amplified by 30 cycles of PCR under TRAP conditions set forth in Kim et al., Science 266:2011, […] (which reference is incorporated herein in its entirety) and quantified.

telomerase = telomerase (Homo sapiens (Human), UniProt O14746); test: Primer extension assay for telomerase activity; type: biochemical; conditions: prodrug itself, cell free
Protocol: Purified human telomerase was incubated with d(TTAGGG)3 (SEQ ID NO: 1) and deoxy-nucleoside triphosphates for 90 minutes at 37° C. All reactions were done in the presence of 200 dTTP and 10 μM dATP (50,000 cpm/pmol a-^33P-dATP). Activity was determined by incubating affinity purified telomerase extract with 1 μM primer [d(TTAGGG)3] (SEQ ID NO: 1), 200 μM dTTP, 50 μM dGTP, 10 μM dATP, 10 μCi [α-^33P]dATP (2000-4000 Ci/mmol) in a buffer containing 50 mM (N-2-hydroxyethyl piperazine-N′-3 propanesulfonic acid)-NaOH pH 8.5, 1 mM MgCl2, 1 mM DTT, 5% glycerol, 0.5 mM EGTA and 100 mM KOAc in a final reaction volume of 40 μl. Primer extension products were analyzed on a 15% polyacrylamide gel containing 7 M urea. A characteristic telomerase ladder has multiple bands. If a compound is not a substrate then (TTAGGG)3TTA (21 nt) (SEQ ID NO: 2). If a compound is a chain terminator then (TTAGGG)3TTAG* (22 nt) (SEQ ID NO: 3).
Purified human telomerase was incubated with d(TTAGGG)3 (SEQ ID NO: 1) and deoxy-nucleoside triphosphates for 90 minutes at 37° C. All reactions were done in the presence of 200 dTTP and 10 μM dATP (50,000 cpm/pmol a-^33P-dATP). Activity was determined by incubating affinity purified telomerase extract with […] primer [d(TTAGGG)3] (SEQ ID NO: 1), […] [α-^33P]dATP (2000-4000 Ci/mmol) in a buffer containing 50 mM (N-2-hydroxyethyl piperazine-N′-3 propanesulfonic acid)-NaOH pH 8.5, 1 mM MgCl2, 1 mM DTT, 5% glycerol, 0.5 mM EGTA and 100 mM KOAc in a final reaction volume of 40 μl. Primer extension products were analyzed on a 15% polyacrylamide gel containing 7 M urea. A characteristic telomerase ladder has multiple bands. If a compound is not a substrate then (TTAGGG)3TTA (21 nt) (SEQ ID NO: 2). If a compound is a chain terminator then (TTAGGG)3TTAG* (22 nt) (SEQ ID NO: 3).

immortal U87 cells = test: Telomere repeat fragment (TRF) assay using immortal U87 cells; type: cell-based; conditions: concentration not given at the value, approximately 20 population doublings
Protocol: as §1
Telomere repeat fragment assays using immortal U87 cells were performed. 10 μM or 20 μM PMIBeG prodrug (ID#142820) or PMPG prodrug (ID#142715) were added to the cells. Imetelstat (163 L) was used as a reference and a mismatch was used as a negative control. After approximately 20 population doublings, the cells were harvested and telomere lengths determined using TRF. The estimated average lengths were: (1) mismatch control: 5 kb; (2) Imetelstat (163 L): 3.5 kb; (3) PMIBeG prodrug (ID#142820) at 20 μM: 4 kb; (4) PMIBeG prodrug (ID#142820) at 10 μM: 4.1 kb; (5) PMPG prodrug (ID#142715): 3.5 kb.

Caki-1 cells = test: Caki-1 tumor growth in SCID hairless outbred (SHO) mice; type: in vivo; conditions: for Intercept coefficient of linear transformed tumor growth curve / Slope coefficient of linear transformed tumor growth curve: linear mixed effects model, change versus vehicle; for tumor growth compared to vehicle control: 30 mg/kg intraperitoneal
Protocol: Low-passage Caki-1 cells were injected subcutaneously into the flank of SCID hairless outbred (SHO) mice receiving 30 mg/kg of one of the following via intraperitoneal injection: vehicle (PBS with 0.4% Tween 20), Imetelstat (163 L), PMPG free acid (ID#142693), or PMPG prodrug (ID#142715). Calipers were used to measure tumor length and width bi-weekly, and tumor volume was calculated. Once a tumor had grown >50 mm^3, the animal was randomly entered into a study group, either control or treatment. Animals received 30 mg/kg compound via intraperitoneal injection for the duration of the study. The control vehicle was PBS with 0.4% Tween 20. Tumor volume was measured bi-weekly, and animals were sacrificed either when tumor size was >2000 mm^3 or at defined study completion date.
At the conclusion of the study, a linear transformation of the tumor growth curves was performed. The slope of the growth curves for each treatment group was derived by using a linear mixed effects model. The Y-intercept was used to confirm random tumor starting size at the time of animals entering into the study.

[1] = Cytotoxicity in cell culture (cells not named); type: cell-based
[2] = Day 10, 30 mg/kg intraperitoneal
[3] = Day 20, 30 mg/kg intraperitoneal
[4] = Day 30, 30 mg/kg intraperitoneal
[5] = Day 40, 30 mg/kg intraperitoneal
[6] = Day 50, 30 mg/kg intraperitoneal
[7] = Day 60, 30 mg/kg intraperitoneal

telomerase in HT3 cells, sequence (O14746 whole entry): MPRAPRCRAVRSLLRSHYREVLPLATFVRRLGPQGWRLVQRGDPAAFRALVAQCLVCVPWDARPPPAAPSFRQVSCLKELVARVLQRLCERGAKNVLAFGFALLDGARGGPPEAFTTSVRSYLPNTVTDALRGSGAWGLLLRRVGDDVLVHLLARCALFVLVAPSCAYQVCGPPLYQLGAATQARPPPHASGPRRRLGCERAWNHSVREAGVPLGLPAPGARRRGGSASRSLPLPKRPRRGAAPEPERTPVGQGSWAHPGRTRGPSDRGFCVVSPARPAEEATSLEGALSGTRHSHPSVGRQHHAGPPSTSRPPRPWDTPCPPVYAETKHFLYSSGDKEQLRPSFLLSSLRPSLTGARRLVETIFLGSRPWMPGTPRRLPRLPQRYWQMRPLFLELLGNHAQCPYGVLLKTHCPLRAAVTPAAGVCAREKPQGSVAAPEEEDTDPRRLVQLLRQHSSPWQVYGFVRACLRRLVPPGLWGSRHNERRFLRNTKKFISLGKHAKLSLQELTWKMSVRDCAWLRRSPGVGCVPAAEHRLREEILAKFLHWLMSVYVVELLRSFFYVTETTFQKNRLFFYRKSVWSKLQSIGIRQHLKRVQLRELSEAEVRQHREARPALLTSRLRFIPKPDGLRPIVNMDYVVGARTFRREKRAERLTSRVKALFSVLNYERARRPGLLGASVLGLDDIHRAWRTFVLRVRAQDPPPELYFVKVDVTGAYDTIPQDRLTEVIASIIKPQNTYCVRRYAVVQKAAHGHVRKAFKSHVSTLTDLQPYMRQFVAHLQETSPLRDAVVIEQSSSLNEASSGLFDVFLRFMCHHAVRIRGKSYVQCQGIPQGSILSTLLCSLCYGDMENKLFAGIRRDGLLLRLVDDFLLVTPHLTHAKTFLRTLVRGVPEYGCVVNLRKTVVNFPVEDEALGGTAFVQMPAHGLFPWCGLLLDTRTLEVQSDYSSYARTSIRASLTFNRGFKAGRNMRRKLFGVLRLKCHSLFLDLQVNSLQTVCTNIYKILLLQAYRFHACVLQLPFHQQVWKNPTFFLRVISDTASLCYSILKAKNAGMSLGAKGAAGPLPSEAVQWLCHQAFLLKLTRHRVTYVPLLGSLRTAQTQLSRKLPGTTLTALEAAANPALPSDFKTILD
telomerase in HT3 cells, sequence (O60832 whole entry partner): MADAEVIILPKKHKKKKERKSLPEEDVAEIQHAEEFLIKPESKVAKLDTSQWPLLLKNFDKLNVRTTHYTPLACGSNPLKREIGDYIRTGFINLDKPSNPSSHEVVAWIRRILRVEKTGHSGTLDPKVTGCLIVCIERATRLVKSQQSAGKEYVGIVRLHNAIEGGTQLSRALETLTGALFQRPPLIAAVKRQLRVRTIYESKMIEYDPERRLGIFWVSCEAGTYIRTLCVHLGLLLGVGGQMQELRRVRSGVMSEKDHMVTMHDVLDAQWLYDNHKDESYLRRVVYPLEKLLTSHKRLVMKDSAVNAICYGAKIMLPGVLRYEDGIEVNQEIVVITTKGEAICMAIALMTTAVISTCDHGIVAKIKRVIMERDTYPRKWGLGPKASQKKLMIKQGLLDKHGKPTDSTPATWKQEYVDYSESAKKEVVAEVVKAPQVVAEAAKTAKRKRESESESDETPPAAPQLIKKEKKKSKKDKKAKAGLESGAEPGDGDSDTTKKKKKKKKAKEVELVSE
telomerase in HT3 cells, sequence (Q9NX24 whole entry partner): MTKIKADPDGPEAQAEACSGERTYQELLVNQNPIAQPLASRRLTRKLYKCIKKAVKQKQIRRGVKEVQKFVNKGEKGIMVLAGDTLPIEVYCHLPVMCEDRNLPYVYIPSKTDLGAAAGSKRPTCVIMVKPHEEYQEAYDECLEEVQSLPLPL
telomerase in HT3 cells, sequence (Q9NPE3 whole entry partner): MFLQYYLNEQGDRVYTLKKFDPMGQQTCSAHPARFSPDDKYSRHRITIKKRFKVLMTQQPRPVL
telomerase in HT3 cells, sequence (Q9NY12 whole entry partner): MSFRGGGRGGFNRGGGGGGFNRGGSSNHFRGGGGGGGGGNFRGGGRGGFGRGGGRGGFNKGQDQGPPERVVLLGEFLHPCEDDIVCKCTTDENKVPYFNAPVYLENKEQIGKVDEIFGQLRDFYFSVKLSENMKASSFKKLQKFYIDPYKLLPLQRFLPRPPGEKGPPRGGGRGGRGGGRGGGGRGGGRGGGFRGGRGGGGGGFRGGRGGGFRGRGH
telomerase in HT3 cells, sequence (Q9BUR4 whole entry partner): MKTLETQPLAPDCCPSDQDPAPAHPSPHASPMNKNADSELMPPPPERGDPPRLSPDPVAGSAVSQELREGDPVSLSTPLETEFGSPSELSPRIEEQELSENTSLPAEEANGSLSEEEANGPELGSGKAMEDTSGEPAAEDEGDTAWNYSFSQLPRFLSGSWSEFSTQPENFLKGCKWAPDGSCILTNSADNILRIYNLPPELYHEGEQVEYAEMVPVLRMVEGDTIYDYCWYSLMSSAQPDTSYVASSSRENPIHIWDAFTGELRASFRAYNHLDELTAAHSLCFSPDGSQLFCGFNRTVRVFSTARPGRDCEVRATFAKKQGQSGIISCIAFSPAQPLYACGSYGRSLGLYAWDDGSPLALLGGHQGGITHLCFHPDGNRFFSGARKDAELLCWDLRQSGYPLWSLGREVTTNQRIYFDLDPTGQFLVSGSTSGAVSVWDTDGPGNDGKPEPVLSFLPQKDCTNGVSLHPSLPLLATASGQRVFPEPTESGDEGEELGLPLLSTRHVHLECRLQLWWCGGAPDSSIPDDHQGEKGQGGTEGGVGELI
telomerase, sequence (O14746 whole entry): as the sequence (O14746 whole entry) above

Compound | EC50 (telomerase in HT3 cells) | estimated average telomere length (immortal U87 cells) [kb] | tumor volume (Caki-1 cells; [2]) [mm^3] | tumor volume as a percentage of the tumor volume of control vehicle mice (Caki-1 cells; [2]) [%] | tumor volume (Caki-1 cells; [3]) [mm^3] | tumor volume as a percentage of the tumor volume of control vehicle mice (Caki-1 cells; [3]) [%] | tumor volume (Caki-1 cells; [4]) [mm^3] | tumor volume as a percentage of the tumor volume of control vehicle mice (Caki-1 cells; [4]) [%] | tumor volume (Caki-1 cells; [5]) [mm^3] | tumor volume as a percentage of the tumor volume of control vehicle mice (Caki-1 cells; [5]) [%] | tumor volume (Caki-1 cells; [6]) [mm^3] | tumor volume as a percentage of the tumor volume of control vehicle mice (Caki-1 cells; [6]) [%] | tumor volume (Caki-1 cells; [7]) [mm^3] | tumor volume as a percentage of the tumor volume of control vehicle mice (Caki-1 cells; [7]) [%] | Intercept coefficient of linear transformed tumor growth curve (Caki-1 cells) | Slope coefficient of linear transformed tumor growth curve (Caki-1 cells) | estimated average telomere length (A549 cells; 10 μM and 5 μM) [kb] | tumor growth compared to vehicle control (Caki-1 cells) | also measured
C=C(COCP(=O)(O)O)Cn1cnc2c(=O)[nH]c(N)nc21 [ID#142811, (((2-((2-amino-6-oxo-1H-purin-9(6H)-yl)methyl)allyl)oxy)methyl)phosphonic acid] |  |  |  |  |  |  |  |  |  |  |  |  |  |  |  |  |  |  | cytotoxicity compared with PMPG (RPE-64-tv cells): less cytotoxic than PMPG; effect on tissue culture (RPE-64-tv cells; 200 μM): no effect on tissue culture; estimated average telomere length (A549 cells; 20 μM): 5 kb
CC(C)OC(=O)OCOP(=O)(COC(C)Cn1cnc2c(=O)[nH]c(N)nc21)OCOC(=O)OC(C)C (single isomer, unassigned) [ID#142715] | 1100 nM and 1200 nM and 3100 nM and 810 nM | 3.5 | 170.7 | 94 | 377.5 | 95 | 706.6 | 95 | 1186.6 | 95 | 1845.9 | 95 | 2713.0 | 96 | −0.093 | −0.001 | 4 |  | IC50 (telomerase in HT3 cells; HT3 cells, 0.2 μM to 20 μM, two independent experiments, read-out: Ex vivo Assay IC 50): 1000 to 3000 nM and 1200 to 3200 nM; activity in the cell free telomerase assay (telomerase): inactive
Imetelstat [reference compound] |  | 3.5 | 146.0 | 81 | 293.5 | 74 | 517.0 | 70 | 832.2 | 67 | 1254.8 | 65 | 1800.7 | 63 | −0.074 | −0.032 |  | reduction in tumor growth | estimated average telomere length (A549 cells; 2 μM): 4.3 kb
CC(Cn1cnc2c(=O)[nH]c(N)nc21)OCP(=O)(O)O (single isomer, unassigned) [ID#142693, R-(((Guanine-9-yl)propan-2-oxy)methyl) phosphonic acid] | 11700 nM and 2500 nM and 1500 nM |  | 165.1 | 91 | 330.8 | 83 | 581.3 | 78 | 934.3 | 75 | 1407.2 | 73 | 2017.6 | 71 | 0.096 | −0.027 | 4 | reduction in tumor growth | cytotoxicity ([1]; 200 uM): acutely cytotoxic; cytotoxicity ([1]; therapeutic doses (10 μM and 20 μM)): minimal cytotoxicity
